Assay results published in patent US7074447B2 (Laboratories Miret, S.A., priority 2001, dated 2006).

What was measured:
Assay in all cases: minimum inhibition concentration and Kull synergy index of LAE / potassium sorbate
Format in all cases: cell-based
[1] = system: Bacillus subtilis (CECT 356); details: for SI, synergy index: <1 synergism, 1 addition, >1 antagonism
Protocol: The invention is now explained by a number of examples. In these examples LAE and sorbate alone and in a number of different combinations have been investigated against a number of bacterial preparations. For the analysis usually an internal method was used. Conditions and medium were Mueller Hinton broth (pH 7.4) or (pH 5.0) for bacteria, Sabouraud broth (pH 5.8) for yeast and Sabouraud medium for moulds. […] The interaction of the two components of the antimicrobial mixture is calculated according to the method described by Kull et al. (Kull […]. and Mayer R. L., Applied Microbiology, 1961; 6:538-541). According to this method the so-called synergy index is calculated according to the following formula: Synergy index […]. […] All indicated symbols indicate a particular concentration leading to a particular end point, in this case the inhibition of growth of Bacillus subtilis, so that the selected end point is in fact the minimal inhibitory concentration (mic).

[2] = system: Bacillus megaterium (CECT 44); details: pH 7.4, aqueous solutions
Protocol: (§1) The invention is now explained by a number of examples. In these examples LAE and sorbate alone and in a number of different combinations have been investigated against a number of bacterial preparations. For the analysis usually an internal method was used. Conditions and medium were Mueller Hinton broth (pH 7.4) or (pH 5.0) for bacteria, Sabouraud broth (pH 5.8) for yeast and Sabouraud medium for moulds. The interaction of the two components of the antimicrobial mixture is calculated according to the method described by Kull et al. (Kull […]. and Mayer R. L., Applied Microbiology, 1961; 6:538-541). According to this method the so-called synergy index is calculated according to the following formula: Synergy index […]. […] Again the effects of the components alone and in combination have been calculated using the same method as described at Example 1.

[3] = system: Staphylococcus aureus (ATCC 6538); details: for SI, synergy index: <1 synergism, 1 addition, >1 antagonism
Protocol: as §1

[4] = system: Citrobacter intermedium (CECT 401); details: for SI, synergy index: <1 synergism, 1 addition, >1 antagonism
Protocol: (§2) The invention is now explained by a number of examples. In these examples LAE and sorbate alone and in a number of different combinations have been investigated against a number of bacterial preparations. For the analysis usually an internal method was used. Conditions and medium were Mueller Hinton broth (pH 7.4) or (pH 5.0) for bacteria, Sabouraud broth (pH 5.8) for yeast and Sabouraud medium for moulds. The interaction of the two components of the antimicrobial mixture is calculated according to the method described by Kull et al. (Kull […]. and Mayer R. L., Applied Microbiology, 1961; 6:538-541). According to this method the so-called synergy index is calculated according to the following formula: Synergy index […]. […] The same method was used as described for example 1. […] Again the effects of the components alone and in combination have been calculated using the same method as described at Example 1.

[5] = system: Cladosporium cladosporioides (ATCC 16022); details: for SI, synergy index: <1 synergism, 1 addition, >1 antagonism
Protocol: as §2

[6] = system: Enterobacter aerogenes (ATCC 13048); details: for SI, synergy index: <1 synergism, 1 addition, >1 antagonism
Protocol: as §2

[7] = system: Escherichia coli (ATCC 8739); details: for SI, synergy index: <1 synergism, 1 addition, >1 antagonism
Protocol: as §2

[8] = system: Penicillium camemberti (CECT 2267); details: for SI, synergy index: <1 synergism, 1 addition, >1 antagonism
Protocol: as §2

[9] = system: Candida albicans (ATCC 10231); details: for SI, synergy index: <1 synergism, 1 addition, >1 antagonism
Protocol: as §2, with “Conditions and medium were Mueller Hinton broth (pH 7.4) or (pH 5.0) for bacteria, Sabouraud broth (pH 5.8) for yeast and Sabouraud medium for moulds.” left out

[10] = pH 7.4, propylene glycol solutions

C/C=C/C=C/C(=O)[O-].[K+] [potassium sorbate]
1.00: Qs/QS ([1]; pH 5.0) | SI, synergy index ([1]; pH 5.0) | Qs/QS [1, 10] | SI, synergy index [1, 10] | Qs/QS [2] | SI, synergy index ([2]; <1 synergism, 1 addition, >1 antagonism) | Qs/QS ([3]; pH 5.0) | SI, synergy index ([3]; pH 5.0) | Qs/QS ([3]; pH 7.4, aqueous solutions) | SI, synergy index ([3]; pH 7.4, aqueous solutions) | Qs/QS ([4]; pH 5.0) | SI, synergy index ([4]; pH 5.0) | Qs/QS ([4]; pH 7.4, aqueous solutions) | SI, synergy index ([4]; pH 7.4, aqueous solutions) | Qs/QS ([5]; pH 5.0) | SI, synergy index ([5]; pH 5.0) | Qs/QS ([5]; pH 7.4, aqueous solutions) | SI, synergy index ([5]; pH 7.4, aqueous solutions) | Qs/QS ([6]; pH 5.0) | SI, synergy index ([6]; pH 5.0) | Qs/QS ([6]; pH 7.4, aqueous solutions) | SI, synergy index ([6]; pH 7.4, aqueous solutions) | Qs/QS ([7]; pH 5.0) | SI, synergy index ([7]; pH 5.0) | Qs/QS ([7]; pH 7.4, aqueous solutions) | SI, synergy index ([7]; pH 7.4, aqueous solutions) | Qs/QS ([8]; pH 5.0) | SI, synergy index ([8]; pH 5.0) | Qs/QS ([8]; pH 7.4, aqueous solutions) | SI, synergy index ([8]; pH 7.4, aqueous solutions) | Qs/QS ([9]; pH 5.0) | SI, synergy index ([9]; pH 5.0) | Qs/QS ([9]; pH 7.4, aqueous solutions) | SI, synergy index ([9]; pH 7.4, aqueous solutions)
0: Qlae, minimum inhibition concentration of LAE in the mixture ([1]; pH 5.0) | Qlae/QLAE ([1]; pH 5.0) | Qlae, minimum inhibition concentration of LAE in the mixture [1, 10] | Qlae/QLAE [1, 10] | Qlae, minimum inhibition concentration of LAE in the mixture [2] | Qlae/QLAE [2] | Qlae, minimum inhibition concentration of LAE in the mixture ([3]; pH 5.0) | Qlae/QLAE ([3]; pH 5.0) | Qlae, minimum inhibition concentration of LAE in the mixture ([3]; pH 7.4, aqueous solutions) | Qlae, minimum inhibition concentration of LAE in the mixture ([4]; pH 5.0) | Qlae/QLAE ([4]; pH 5.0) | Qlae, minimum inhibition concentration of LAE in the mixture ([4]; pH 7.4, aqueous solutions) | Qlae/QLAE ([4]; pH 7.4, aqueous solutions) | Qlae, minimum inhibition concentration of LAE in the mixture ([5]; pH 5.0) | Qlae/QLAE ([5]; pH 5.0) | Qlae, minimum inhibition concentration of LAE in the mixture ([5]; pH 7.4, aqueous solutions) | Qlae, minimum inhibition concentration of LAE in the mixture ([6]; pH 5.0) | Qlae/QLAE ([6]; pH 5.0) | Qlae, minimum inhibition concentration of LAE in the mixture ([6]; pH 7.4, aqueous solutions) | Qlae, minimum inhibition concentration of LAE in the mixture ([7]; pH 5.0) | Qlae/QLAE ([7]; pH 5.0) | Qlae, minimum inhibition concentration of LAE in the mixture ([7]; pH 7.4, aqueous solutions) | Qlae/QLAE ([7]; pH 7.4, aqueous solutions) | Qlae, minimum inhibition concentration of LAE in the mixture ([8]; pH 5.0) | Qlae/QLAE ([8]; pH 5.0) | Qlae, minimum inhibition concentration of LAE in the mixture ([8]; pH 7.4, aqueous solutions) | Qlae/QLAE ([8]; pH 7.4, aqueous solutions) | Qlae, minimum inhibition concentration of LAE in the mixture ([9]; pH 5.0) | Qlae/QLAE ([9]; pH 5.0) | Qlae, minimum inhibition concentration of LAE in the mixture ([9]; pH 7.4, aqueous solutions) | Qlae/QLAE ([9]; pH 7.4, aqueous solutions)
2048: QS, minimum inhibition concentration of potassium sorbate as single antimicrobial ([8]; pH 7.4, aqueous solutions) | Qs, minimum inhibition concentration of potassium sorbate in the mixture ([8]; pH 7.4, aqueous solutions)
1024: QS, minimum inhibition concentration of potassium sorbate as single antimicrobial ([1]; pH 5.0) | QS, minimum inhibition concentration of potassium sorbate as single antimicrobial [1, 10] | Qs, minimum inhibition concentration of potassium sorbate in the mixture [1, 10] | QS, minimum inhibition concentration of potassium sorbate as single antimicrobial [2] | Qs, minimum inhibition concentration of potassium sorbate in the mixture [2] | QS, minimum inhibition concentration of potassium sorbate as single antimicrobial ([3]; pH 5.0) | QS, minimum inhibition concentration of potassium sorbate as single antimicrobial ([5]; pH 5.0) | QS, minimum inhibition concentration of potassium sorbate as single antimicrobial ([5]; pH 7.4, aqueous solutions) | Qs, minimum inhibition concentration of potassium sorbate in the mixture ([5]; pH 7.4, aqueous solutions) | QS, minimum inhibition concentration of potassium sorbate as single antimicrobial ([6]; pH 5.0) | QS, minimum inhibition concentration of potassium sorbate as single antimicrobial ([7]; pH 5.0) | QS, minimum inhibition concentration of potassium sorbate as single antimicrobial ([8]; pH 5.0) | QS, minimum inhibition concentration of potassium sorbate as single antimicrobial ([9]; pH 5.0) | QS, minimum inhibition concentration of potassium sorbate as single antimicrobial ([9]; pH 7.4, aqueous solutions)
512: QS, minimum inhibition concentration of potassium sorbate as single antimicrobial ([4]; pH 5.0)
1024.00: Qs, minimum inhibition concentration of potassium sorbate in the mixture ([1]; pH 5.0) | Qs, minimum inhibition concentration of potassium sorbate in the mixture ([3]; pH 5.0) | Qs, minimum inhibition concentration of potassium sorbate in the mixture ([4]; pH 5.0) | Qs, minimum inhibition concentration of potassium sorbate in the mixture ([5]; pH 5.0) | Qs, minimum inhibition concentration of potassium sorbate in the mixture ([6]; pH 5.0) | Qs, minimum inhibition concentration of potassium sorbate in the mixture ([7]; pH 5.0) | Qs, minimum inhibition concentration of potassium sorbate in the mixture ([8]; pH 5.0) | Qs, minimum inhibition concentration of potassium sorbate in the mixture ([9]; pH 5.0) | Qs, minimum inhibition concentration of potassium sorbate in the mixture ([9]; pH 7.4, aqueous solutions)
1536: QS, minimum inhibition concentration of potassium sorbate as single antimicrobial ([3]; pH 7.4, aqueous solutions) | Qs, minimum inhibition concentration of potassium sorbate in the mixture ([3]; pH 7.4, aqueous solutions) | QS, minimum inhibition concentration of potassium sorbate as single antimicrobial ([4]; pH 7.4, aqueous solutions) | Qs, minimum inhibition concentration of potassium sorbate in the mixture ([4]; pH 7.4, aqueous solutions) | QS, minimum inhibition concentration of potassium sorbate as single antimicrobial ([6]; pH 7.4, aqueous solutions) | Qs, minimum inhibition concentration of potassium sorbate in the mixture ([6]; pH 7.4, aqueous solutions) | QS, minimum inhibition concentration of potassium sorbate as single antimicrobial ([7]; pH 7.4, aqueous solutions) | Qs, minimum inhibition concentration of potassium sorbate in the mixture ([7]; pH 7.4, aqueous solutions)
0.0: Qlae/QLAE ([3]; pH 7.4, aqueous solutions)
0.00: Qlae/QLAE ([5]; pH 7.4, aqueous solutions)
